In ChEMBL document CHEMBL1130210, “Steroidal glycoside cholesterol absorption inhibitors” (1997):

What follows are compounds tested on Cricetinae gen. sp. (assay: Ability to inhibit the intestinal absorption of [3H]cholesterol in cholesterol-fed hamsters).
Assay type: functional

Point of comparison: `C[C@@H]1CC[C@@]2(OC1)OC1CC3C4CC[C@H]5C[C@@H](O[C@@H]6O[C@@H](CO)[C@@H](O[C@@H]7O[C@@H](COC(=O)Nc8ccc(F)cc8)[C@@H](OC(=O)Nc8ccc(F)cc8)[C@H](O)[C@@H]7O)[C@H](O)[C@@H]6O)CC[C@]5(C)C4C(=O)C[C@]3(C)C1[C@@H]2C` (some centres not stated), ED50 0.2 mg/kg. Against it:
- C[C@@H]1CC[C@@]2(OC1)OC1C[C@H]3[C@@H]4CC[C@H]5C[C@@H](O[C@@H]6O[C@@H](CO)[C@@H](O[C@@H]7O[C@@H](COC(=O)Nc8ccccc8F)[C@@H](O)[C@H](O)[C@@H]7O)[C@H](O)[C@@H]6O)CC[C@]5(C)[C@H]4C(=O)C[C@]3(C)C1[C@@H]2C (some centres not stated) — the same, 0.2 mg/kg
- C[C@@H]1CC[C@@]2(OC1)O[C@H]1C[C@H]3[C@@H]4CC[C@H]5C[C@@H](O[C@@H]6O[C@H](CO)[C@H](O)[C@H](O)[C@H]6O)CC[C@]5(C)[C@H]4C(=O)C[C@]3(C)[C@H]1[C@@H]2C — 60-fold higher, 12 mg/kg
- C[C@]12CC[C@H](O[C@@H]3O[C@@H](CO)[C@@H](O[C@@H]4O[C@@H](CO)[C@@H](O)[C@H](O)[C@@H]4O)[C@H](O)[C@@H]3O)C[C@@H]1CC[C@@H]1[C@@H]2CC[C@]2(C)C(=O)CC[C@@H]12 — 120-fold higher, 25 mg/kg
- CCOCOC[C@@H]1O[C@@H](O[C@H]2[C@H](O)[C@H](O)[C@H](O[C@H]3CC[C@]4(C)C5C(=O)C[C@@]6(C)C(CC7O[C@]8(CC[C@@H](C)CO8)[C@@H](C)C76)C5CC[C@H]4C3)O[C@H]2COCOCC)[C@@H](O)[C@@H](O)[C@@H]1O (some centres not stated) — 15-fold higher, 3 mg/kg
- C[C@@H]1CC[C@@]2(OC1)OC1CC3C4CC[C@H]5C[C@@H](O[C@@H]6O[C@@H](COC(=O)Nc7ccccc7F)[C@@H](O[C@@H]7O[C@@H](COC(=O)Nc8ccccc8F)[C@@H](O)[C@H](O)[C@@H]7O)[C@H](O)[C@@H]6O)CC[C@]5(C)C4C(=O)C[C@]3(C)C1[C@@H]2C (some centres not stated) — 4-fold higher, 0.8 mg/kg
- C[C@@H]1CC[C@@]2(OC1)O[C@H]1C[C@H]3[C@@H]4CC=C5C[C@@H](O[C@@H]6O[C@@H](CO)[C@@H](O[C@@H]7O[C@@H](CO)[C@@H](O)[C@H](O)[C@@H]7O)[C@H](O)[C@@H]6O)CC[C@]5(C)[C@H]4CC[C@]3(C)[C@H]1[C@@H]2C — 500-fold higher, 100 mg/kg
- C[C@@H]1CC[C@@]2(OC1)OC1CC3C4CC[C@H]5C[C@@H](O[C@@H]6O[C@@H](CO)[C@@H](O[C@@H]7O[C@@H](COC(=O)Nc8ccc(Cl)cc8)[C@@H](O)[C@H](O)[C@@H]7O)[C@H](O)[C@@H]6O)CC[C@]5(C)C4C(=O)C[C@]3(C)C1[C@@H]2C (some centres not stated) — 5-fold higher, 1 mg/kg
- C[C@@H]1CC[C@@]2(OC1)OC1CC3C4CC[C@H]5C[C@@H](O[C@@H]6O[C@@H](COC(=O)Nc7ccc(Cl)cc7)[C@@H](O[C@@H]7O[C@@H](COC(=O)Nc8ccc(Cl)cc8)[C@@H](O)[C@H](O)[C@@H]7O)[C@H](O)[C@@H]6O)CC[C@]5(C)C4C(=O)C[C@]3(C)C1[C@@H]2C (some centres not stated) — 25-fold higher, 5 mg/kg
- C[C@@H]1CC[C@@]2(OC1)OC1CC3C4CC[C@H]5C[C@@H](O[C@@H]6O[C@@H](CO)[C@@H](O[C@@H]7O[C@@H](COC(=O)Nc8ccccc8F)[C@@H](OC(=O)Nc8ccccc8F)[C@H](O)[C@@H]7O)[C@H](O)[C@@H]6O)CC[C@]5(C)C4CC[C@]3(C)C1[C@@H]2C (some centres not stated) — 5-fold higher, 1 mg/kg
- C[C@@H]1CC[C@@]2(OC1)OC1CC3C4CC[C@H]5C[C@@H](O[C@@H]6O[C@@H](CO)[C@@H](O[C@@H]7O[C@@H](COC(=S)Nc8ccccc8)[C@@H](OC(=S)Nc8ccccc8)[C@H](O)[C@@H]7O)[C@H](O)[C@@H]6O)CC[C@]5(C)C4C(=O)C[C@]3(C)C1[C@@H]2C (some centres not stated) — 5-fold lower, 0.04 mg/kg
- C[C@@H]1CC[C@@]2(OC1)OC1CC3C4CC[C@H]5C[C@@H](O[C@@H]6O[C@@H](CO)[C@@H](O[C@@H]7O[C@@H](COC(=O)Nc8ccccc8)[C@@H](OC(=O)Nc8ccccc8)[C@H](O)[C@@H]7O)[C@H](O)[C@@H]6O)CC[C@]5(C)C4C(=O)C[C@]3(C)C1[C@@H]2C (some centres not stated) — 2-fold lower, 0.1 mg/kg
- C[C@@H]1CC[C@@]2(OC1)OC1CC3C4CC[C@H]5C[C@@H](O[C@@H]6O[C@@H](CO)[C@@H](O[C@@H]7O[C@@H](COC(=O)N8CCCC8)[C@@H](O)[C@H](O)[C@@H]7O)[C@H](O)[C@@H]6O)CC[C@]5(C)C4C(=O)C[C@]3(C)C1[C@@H]2C (some centres not stated) — 7.5-fold higher, 1.5 mg/kg
- C[C@@H]1CC[C@@]2(OC1)OC1CC3C4CC[C@H]5C[C@@H](O[C@@H]6O[C@@H](CO)[C@@H](O[C@@H]7O[C@@H](COC(=O)NCCc8ccccc8)[C@@H](O)[C@H](O)[C@@H]7O)[C@H](O)[C@@H]6O)CC[C@]5(C)C4C(=O)C[C@]3(C)C1[C@@H]2C (some centres not stated) — 25-fold higher, 5 mg/kg
- C[C@@H]1CC[C@@]2(OC1)OC1CC3C4CC[C@H]5C[C@@H](O[C@@H]6O[C@@H](COC(=O)Nc7c(Cl)cccc7Cl)[C@@H](O[C@@H]7O[C@@H](COC(=O)Nc8c(Cl)cccc8Cl)[C@@H](O)[C@H](O)[C@@H]7O)[C@H](O)[C@@H]6O)CC[C@]5(C)C4C(=O)C[C@]3(C)C1[C@@H]2C (some centres not stated) — 2-fold higher, 0.4 mg/kg
- C[C@@H]1CC[C@@]2(OC1)OC1CC3C4CC[C@H]5C[C@@H](O[C@@H]6O[C@@H](COC(=O)Nc7ccccc7F)[C@@H](O[C@@H]7O[C@@H](CO)[C@@H](O)[C@H](O)[C@@H]7O)[C@H](O)[C@@H]6O)CC[C@]5(C)C4C(=O)C[C@]3(C)C1[C@@H]2C (some centres not stated) — 35-fold higher, 7 mg/kg
- C[C@@H]1CC[C@@]2(OC1)OC1CC3C4CC[C@H]5C[C@@H](O[C@@H]6O[C@@H](CO)[C@@H](O[C@@H]7O[C@@H](COC(=O)Nc8ccccc8F)[C@@H](OC(=O)Nc8ccccc8F)[C@H](O)[C@@H]7O)[C@H](O)[C@@H]6O)CC[C@]5(C)C4CC(=O)[C@]3(C)C1[C@@H]2C (some centres not stated) — 2.9-fold lower, 0.07 mg/kg
- CCOC(=O)CNC(=O)OC[C@@H]1O[C@@H](O[C@H]2[C@H](O)[C@H](O)[C@H](O[C@H]3CC[C@]4(C)C5C(=O)C[C@@]6(C)C(CC7O[C@]8(CC[C@@H](C)CO8)[C@@H](C)C76)C5CC[C@H]4C3)O[C@H]2CO)[C@@H](O)[C@@H](O)[C@@H]1OC(=O)NCC(=O)OCC (some centres not stated) — 3-fold higher, 0.6 mg/kg
- C[C@@H]1CC[C@@]2(OC1)OC1CC3C4CC[C@H]5C[C@@H](O[C@@H]6O[C@@H](CO)[C@@H](O[C@@H]7O[C@@H](COC(=O)NCc8ccccc8)[C@@H](OC(=O)NCc8ccccc8)[C@H](O)[C@@H]7O)[C@H](O)[C@@H]6O)CC[C@]5(C)C4C(=O)C[C@]3(C)C1[C@@H]2C (some centres not stated) — within 1.5-fold, 0.3 mg/kg
- C[C@@H]1CC[C@@]2(OC1)OC1CC3C4CC[C@H]5C[C@@H](O[C@@H]6O[C@@H](CO)[C@@H](O[C@@H]7O[C@@H](COC(=O)Nc8cccc(F)c8)[C@@H](OC(=O)Nc8cccc(F)c8)[C@H](O)[C@@H]7O)[C@H](O)[C@@H]6O)CC[C@]5(C)C4C(=O)C[C@]3(C)C1[C@@H]2C (some centres not stated) — 2-fold lower, 0.1 mg/kg
- C[C@@H]1CC[C@@]2(OC1)OC1CC3C4CC[C@H]5C[C@@H](O[C@@H]6O[C@@H](CO)[C@@H](O[C@@H]7O[C@@H](COC(=O)Nc8c(Cl)cccc8Cl)[C@@H](O)[C@H](O)[C@@H]7O)[C@H](O)[C@@H]6O)CC[C@]5(C)C4C(=O)C[C@]3(C)C1[C@@H]2C (some centres not stated) — the same, 0.2 mg/kg
- CC(C)CCC[C@@H](C)C1CC[C@H]2[C@@H]3CC[C@H]4C[C@@H](O[C@@H]5O[C@@H](CO)[C@@H](O[C@@H]6O[C@@H](CO)[C@@H](O)[C@H](O)[C@@H]6O)[C@H](O)[C@@H]5O)CC[C@]4(C)[C@H]3CC[C@]12C (some centres not stated) — 750-fold higher, 150 mg/kg
- C[C@H]1CC[C@@]2(OC1)O[C@H]1C[C@H]3[C@@H]4CC[C@@H]5C[C@@H](O[C@@H]6O[C@@H](CO)[C@@H](O[C@@H]7O[C@@H](CO)[C@@H](O)[C@H](O)[C@@H]7O)[C@H](O)[C@@H]6O)CC[C@]5(C)[C@H]4CC[C@]3(C)C1[C@@H]2C (some centres not stated) — 380-fold higher, 75 mg/kg
- C[C@@H]1CC[C@@]2(OC1)OC1CC3C4CC[C@H]5C[C@@H](O[C@@H]6O[C@@H](CO)[C@@H](O[C@@H]7O[C@@H](COC(=O)Nc8ccccc8F)[C@@H](OC(=O)Nc8ccccc8F)[C@H](O)[C@@H]7O)[C@H](O)[C@@H]6O)CC[C@]5(C)C4C(=O)C[C@]3(C)C1[C@@H]2C (some centres not stated) — 8-fold lower, 0.025 mg/kg
- C[C@@H]1CC[C@@]2(OC1)OC1CC3C4CC[C@H]5C[C@@H](O[C@@H]6O[C@@H](CO)[C@@H](O[C@@H]7O[C@@H](COC(=O)Nc8ccc(F)cc8F)[C@@H](OC(=O)Nc8ccc(F)cc8F)[C@H](O)[C@@H]7O)[C@H](O)[C@@H]6O)CC[C@]5(C)C4C(=O)C[C@]3(C)C1[C@@H]2C (some centres not stated) — 5-fold lower, 0.04 mg/kg
- Cc1ccccc1NC(=O)OC[C@@H]1O[C@@H](O[C@H]2[C@H](O)[C@H](O)[C@H](O[C@H]3CC[C@]4(C)C5C(=O)C[C@@]6(C)C(CC7O[C@]8(CC[C@@H](C)CO8)[C@@H](C)C76)C5CC[C@H]4C3)O[C@H]2CO)[C@@H](O)[C@@H](O)[C@@H]1O (some centres not stated) — 2.5-fold higher, 0.5 mg/kg
- CC1CC[C@@]2(OC1)OC1C[C@H]3[C@@H]4CC[C@H]5C[C@@H](OC6OC(CCl)C(OC7OC(CCl)C(O)C(O)C7O)C(O)C6O)CC[C@]5(C)[C@H]4C(=O)C[C@]3(C)C1[C@@H]2C (some centres not stated) — 2.5-fold higher, 0.5 mg/kg
- CC1CC[C@@]2(OC1)OC1C[C@H]3[C@@H]4CC[C@H]5C[C@@H](OC6OC(CF)C(OC7OC(CF)C(O)C(O)C7O)C(O)C6O)CC[C@]5(C)[C@H]4C(=O)C[C@]3(C)C1[C@@H]2C (some centres not stated) — 3.5-fold higher, 0.7 mg/kg
- CC1CC[C@@]2(OC1)OC1C[C@H]3[C@@H]4CC[C@H]5C[C@@H](OC6OC(CI)C(OC7OC(CI)C(O)C(O)C7O)C(O)C6O)CC[C@]5(C)[C@H]4C(=O)C[C@]3(C)C1[C@@H]2C (some centres not stated) — 7.5-fold higher, 1.5 mg/kg
- CC1CC[C@@]2(OC1)OC1C[C@H]3[C@@H]4CC[C@H]5C[C@@H](OC6OC(C)C(OC7OC(C)C(O)C(O)C7O)C(O)C6O)CC[C@]5(C)[C@H]4C(=O)C[C@]3(C)C1[C@@H]2C (some centres not stated) — 32-fold higher, 6.5 mg/kg
- CC1CC[C@@]2(OC1)OC1C[C@H]3[C@@H]4CC[C@H]5C[C@@H](O[C@@H]6O[C@@H](CO)C(O[C@@H]7O[C@@H](COC(=O)Nc8ccccc8Cl)[C@@H](OC(=O)Nc8ccccc8Cl)[C@H](O)[C@@H]7O)[C@@H](O)[C@@H]6O)CC[C@]5(C)[C@H]4C(=O)C[C@]3(C)C1[C@@H]2C (some centres not stated) — 5-fold higher, 1 mg/kg
- CC1CC[C@@]2(OC1)OC1C[C@H]3[C@@H]4CC[C@H]5C[C@@H](O[C@@H]6O[C@@H](CO)[C@@H](O[C@@H]7O[C@@H](COC(=O)N8CCOCC8)[C@@H](OC(=O)N8CCOCC8)[C@H](O)C7O)[C@H](O)[C@@H]6O)CC[C@]5(C)[C@H]4C(=O)C[C@]3(C)C1[C@@H]2C (some centres not stated) — 20-fold higher, 4 mg/kg
